Data from ChEMBL document CHEMBL5441451, “ASAP - In vitro cytotoxicity” (2024).
Several values for one entry are separate records, joined by “and”; a condition that tells them apart may be missing. Equal entries are not always repeated.

Columns and labels:
[1] = Functional metabolic assay to measure dose dependent changes in cell viability from drug treatment in HeLa-ACE2 cells. Hela-ACE2 cells are seeded prior to drug treatment, then incubated in MTT (3-[4,5-dimethylthiazol-2-yl]-2,5- diphenyltetrazolium bromide) labelling reagent and SDS. Absorbance is measured at 560 and 750 nm and analyzed by Gen5 software. The assay has been performed by Icahn School of Medicine at Mount Sinai.; format: toxicity, cell-based; settings: human
[2] = Functional metabolic assay to measure dose dependent changes in cell viability from drug treatment in iPSC-Pneumocyte cells. The cells are seeded then incubated in MTT (3-[4,5-dimethylthiazol-2-yl]-2,5- diphenyltetrazolium bromide) labeling reagent and SDS. Absorbance is measured at 560 and 750 nm and analyzed by Gen5 software. The assay has been performed by Icahn School of Medicine at Mount Sinai.; format: toxicity, cell-based; settings: human

Structure (SMILES) | CC10 ([1]; hela-ace2) | CC50 ([1]; hela-ace2) | CC50 ([2]; iPSC-Pneumocyte cells) | CC10 ([2]; pneumocyte) | CC50 ([1]; HeLa-ACE2 cells) | CC50 ([2]; pneumocyte)
CC(C)[C@@H](Nc1ncnc2[nH]ccc12)c1ccc2c(c1)S(=O)(=O)CCC2 | > 50 µM and > 20 µM | > 50 µM | > 50 µM | > 50 µM | – | –
CC(C)[C@@H](Nc1ncnc2[nH]c(C(=O)N[C@H]3CCN(C)C3)cc12)c1ccc2c(c1)S(=O)(=O)CCC2 | > 20 µM | – | > 50 µM | > 50 µM | > 20 µM | –
CCNC(=O)c1cc2c(N[C@@H](c3ccc4c(c3)S(=O)(=O)CCO4)C(C)C)ncnc2[nH]1 | > 20 µM | – | – | – | > 20 µM | –
Cc1nn(C)cc1-c1cc2c(N[C@@H](c3ccc4c(c3)S(=O)(=O)CCC4)C(C)C)ncnc2[nH]1 | > 20 µM | – | – | – | > 20 µM | –
CCNC(=O)c1cc2c(N[C@@H](c3ccc4c(c3)S(=O)(=O)CCC4)C(C)C)ncnc2[nH]1 | > 20 µM | – | – | – | > 20 µM | –
Cn1ncc(-c2cc3c(N[C@@H](c4ccc5c(n4)OCCO5)C(C)(C)C)ncnc3[nH]2)c1C#N | > 10 µM and > 20 µM | > 20 µM | – | – | > 10 µM | –
CNC(=O)c1cc2c(N[C@@H](c3ccc4c(c3)OCCO4)C(C)C)ncnc2[nH]1 | > 50 µM | – | > 50 µM | > 50 µM | > 50 µM | –
CNC(=O)c1cccc(-c2cc3c(N[C@@H](c4ccc5c(c4)S(=O)(=O)CCC5)C(C)C)ncnc3[nH]2)c1 | > 20 µM | – | – | – | > 20 µM | –
CC(C)[C@H](Nc1ncnc2[nH]c(-c3cnn(CC(N)=O)c3)cc12)c1ccc2c(c1)S(=O)(=O)CCC2 | > 20 µM | – | > 50 µM | > 50 µM | > 20 µM | –
CC(C)[C@@H](Nc1ncnc2[nH]c(-c3cnn(C)c3)cc12)c1ccc2c(c1)S(=O)(=O)NCC2 | > 20 µM | – | – | – | > 20 µM | –
CCNC(=O)c1cc2c(N[C@@H](c3ccc4c(c3)OCCO4)C(C)C)ncnc2[nH]1 | – | – | < 0.206 µM | 1.29 µM | – | –
CC(C)[C@H](Nc1ncnc2[nH]c(-c3cnn(C)c3C#N)cc12)c1ccc2c(c1)S(=O)(=O)CCC2 | > 20 µM | – | – | – | > 20 µM | –
CC(C)(C)[C@H](Nc1ncnc2[nH]c(-c3cnn(CC(N)=O)c3)cc12)c1ccc2c(c1)OCCO2 | > 20 µM | – | – | – | > 20 µM | –
CNCc1cc(-c2cc3c(N[C@H](c4ccc5c(c4)S(=O)(=O)CCC5)C(C)C)ncnc3[nH]2)co1 | > 20 µM | – | – | – | > 20 µM | –
CC(C)[C@H](Nc1ncnc2[nH]c(-c3cnn(C)c3C#N)cc12)c1ccc2c(n1)NC(=O)CO2 | > 20 µM | – | – | – | > 20 µM | –
CNCc1cc(-c2cc3c(N[C@@H](c4ccc5c(c4)S(=O)(=O)NCC5)C(C)C)ncnc3[nH]2)co1 | > 20 µM | – | > 50 µM | > 50 µM | > 20 µM | –
CC(C)[C@@H](Nc1ncnc2[nH]ccc12)c1ccc2c(c1)S(=O)(=O)CCO2 | > 20 µM | – | – | – | > 20 µM | –
CC(C)[C@@H](Nc1ncnc2[nH]ccc12)c1ccc2c(c1)NC(=O)CO2 | > 50 µM | – | > 50 µM | > 50 µM | > 50 µM | –
COc1ccc([C@@H](Cc2nnn[nH]2)NC(=O)c2ncnc3[nH]ccc23)cc1 | > 20 µM | – | – | – | > 20 µM | –
CC(C)[C@H](Nc1ncnc2[nH]c(-c3cnn(C)c3C#N)cc12)c1ccc2c(c1)NC(=O)CO2 | > 20 µM | – | – | – | > 20 µM | –
CCNC(=O)c1cc2c(N[C@@H](c3ccc4c(c3)S(=O)(=O)NCC4)C(C)C)ncnc2[nH]1 | > 20 µM | – | – | – | > 20 µM | –
CC(C)[C@H](Nc1ncnc2[nH]c(-c3cnn(C)c3)cc12)c1ccc2c(c1)S(=O)(=O)CCC2 | > 20 µM | – | – | – | > 20 µM | –
CC(C)[C@@H](Nc1ncnc2[nH]c(-c3cnn(C)c3C#N)cc12)c1ccc2c(c1)OCCO2 | > 50 µM | – | – | 24.479 µM and > 50 µM | > 50 µM | 18.1 µM and > 50 µM

Structure (SMILES) | CC10 ([1]; hela-ace2) | CC50 ([1]; hela-ace2) | CC50 ([2]; iPSC-Pneumocyte cells) | CC10 ([2]; pneumocyte) | CC50 ([1]; HeLa-ACE2 cells) | CC50 ([2]; pneumocyte)
CC(C)[C@@H](Nc1ncnc2[nH]cc(C(=O)NC3CC3)c12)c1ccc2c(c1)S(=O)(=O)CCC2 | > 20 µM | – | – | – | > 20 µM | –
CC(C)[C@@H](Nc1ncnc2[nH]c(-c3ccc4nnn(C)c4c3)cc12)c1ccc2c(c1)S(=O)(=O)CCC2 | > 20 µM | – | – | – | > 20 µM | –
CC(C)[C@@H](Nc1ncnc2[nH]c(-c3cnn(C)c3)cc12)c1ccc2c(c1)S(=O)(=O)CCC2 | > 20 µM | – | > 50 µM | > 50 µM | > 20 µM | –
Cc1ncc(-c2cc3c(N[C@@H](c4ccc5c(c4)OCCO5)C(C)C)ncnc3[nH]2)cn1 | > 20 µM | – | > 50 µM | > 50 µM | > 20 µM | –
CC(C)[C@@H](Nc1ncnc2[nH]c(-c3cnn(CC(N)=O)c3)cc12)c1ccc2c(n1)OCCO2 | – | – | > 50 µM | > 50 µM | – | –
CNC(=O)Cn1cc(-c2cc3c(N[C@H](c4ccc5c(c4)S(=O)(=O)CCC5)C(C)C)ncnc3[nH]2)cn1 | > 20 µM | – | > 50 µM | > 50 µM | > 20 µM | –
CC(C)[C@@H](Nc1ncnc2[nH]c(-c3ccc4cncn4c3)cc12)c1ccc2c(c1)S(=O)(=O)CCC2 | > 20 µM | – | – | – | > 20 µM | –
CC(C)[C@@H](Nc1ncnc2[nH]c(-c3cncc(S(C)(=O)=O)c3)cc12)c1ccc2c(c1)S(=O)(=O)CCC2 | > 20 µM | – | – | – | > 20 µM | –
CC(C)(C)[C@@H](Nc1ncnc2[nH]c(-c3cnn(CC(N)=O)c3)cc12)c1ccc2c(n1)OCCO2 | > 20 µM | – | > 50 µM | > 50 µM | > 20 µM | –
CC(C)[C@@H](Nc1ncnc2[nH]c(C(N)=O)cc12)c1ccc2c(c1)OCCO2 | < 0.082 µM | – | > 50 µM | > 50 µM | < 0.082 µM | –
CC(C)[C@@H](Nc1ncnc2[nH]c(-c3cnn(CC(N)=O)c3)cc12)c1ccc2c(c1)S(=O)(=O)CCC2 | > 20 µM | – | – | – | > 20 µM | –
CNC(=O)c1cc2c(N[C@@H](c3ccc4c(c3)S(=O)(=O)CCC4)C(C)C)ncnc2[nH]1 | > 20 µM | – | – | – | > 20 µM | –
CNC(=O)c1cccc(-c2cc3c(N[C@H](c4ccc5c(c4)S(=O)(=O)CCC5)C(C)C)ncnc3[nH]2)c1 | > 20 µM | – | – | – | > 20 µM | –
CC(C)[C@@H](Nc1ncnc2[nH]c(-c3cnn(CC(=O)N(C)C)c3)cc12)c1ccc2c(c1)OCCO2 | > 20 µM | – | – | – | > 20 µM | –
CC(C)[C@@H](Nc1ncnc2[nH]c(-c3cnn(CC(=O)N(C)C)c3)cc12)c1ccc2c(c1)S(=O)(=O)CCC2 | > 20 µM | – | – | – | > 20 µM | –
CC(C)[C@@H](Nc1ncnc2[nH]c(-c3cnn(C)c3C#N)cc12)c1ccc2c(n1)NC(=O)CO2 | > 20 µM | – | – | – | > 20 µM | –
CC(C)[C@@H](Nc1ncnc2[nH]c(-c3cnn(C)c3C#N)cc12)c1ccc2c(c1)S(=O)(=O)CCC2 | > 20 µM | – | > 50 µM | > 50 µM | > 20 µM | –
Cn1ncc(-c2cc3c(N[C@@H](c4ccc5c(c4)OCCO5)C(C)(C)C)ncnc3[nH]2)c1C#N | > 20 µM | – | 48.6 µM | > 50 µM | > 20 µM | –
C[C@@H](C(=O)O)[C@H](NC(=O)c1ncnc2[nH]ccc12)c1ccc(Br)cc1 | > 20 µM | – | – | – | > 20 µM | –
CCNC(=O)c1cc2c(N[C@H](c3ccc4c(c3)OCCO4)C(C)C)ncnc2[nH]1 | > 20 µM | – | – | – | > 20 µM | –
CC(C)[C@@H](Nc1ncnc2[nH]c(-c3cnn(C)n3)cc12)c1ccc2c(c1)OCCO2 | > 20 µM | – | < 0.206 µM | < 0.206 µM | > 20 µM | –
CC(C)[C@@H](Nc1ncnc2[nH]c(-c3cnn(CC(N)=O)c3)cc12)c1ccc2c(c1)OCCO2 | > 50 µM | – | > 50 µM | > 50 µM | > 50 µM | –
